Experimental data: US8513227B2, “Inhibition of inflammatory cytokine production with tanshinones” (The Feinstein Institute for Medical Research, priority 2006, dated 2013)

Tests used:
HMGB1 [1] = test: LPS-induced HMGB1 release in primary human peripheral blood mononuclear cells; format: cell-based; details: FIG. 2B
Method: (§1) Cell culture. Murine macrophage-like RAW 264.7 cells were obtained from the American Type Culture Collection (ATCC, Rockville, Md.), and primary peritoneal macrophages were isolated from Balb/C mice (male, 7-8 weeks, 20-25 grams) at 2-3 days after intraperitoneal injection of 2 ml thioglycollate broth (4%) as previously described (Chen et al. 2004; Rendon-Mitchell et al. 2003). Murine macrophages were pre-cultured in RPMI 1640 medium (Gibco BRL, Grand Island, N.Y.) supplemented with 10% fetal bovine serum (FBS) and 2 mmol/L glutamine. […]
(§2) LPS stimulation. […] At 16 hours after LPS stimulation, levels of HMGB1 in the culture medium were determined as previously described (Chen et al. 2004; Rendon-Mitchell et al. 2003; Wang et al. 1999).
(§3) HMGB1 western blotting analysis. The levels of HMGB1 in the culture medium or serum were determined by western blotting analysis as previously described (Chen et al. 2004; Rendon-Mitchell et al. 2003; Wang et al. 1999). The relative band intensity was quantified using NIH image 1.59 software to determine HMGB1 levels with reference to standard curves generated with purified HMGB1.

[2] = test system: sepsis-induced cardiovascular dysfunction; test: Sepsis-induced cardiovascular dysfunction in CLP rats (radiolabeled microspheres); format: in vivo, Sprague-Dawley rats; details: 20 h after CLP
Method: (§4) Animal models of endotoxemia and sepsis. This study was approved and performed in accordance with the guidelines for the care and use of laboratory animals at the Feinstein Institute for Medical Research, Manhasset, N.Y. Endotoxemia was induced in Balb/C mice (male, 7-8 weeks) by intraperitoneal injection of bacterial endotoxin (LPS, 15 mg/kg) as previously described (Chen et al. 2005; Wang et al. 1999; Wang et al. 2006). Sepsis was induced in male Balb/C mice (7-8 weeks, 20-25 g) or Sprague-Dawley rats (290-310 g) by cecal ligation and puncture (CLP) as previously described (Wang et al. 2006; Yang et al. 2002b). Herbal components were administered intraperitoneally into mice at indicated doses and time points, and mice were monitored for survival for up to two weeks. In parallel experiments, mice were euthanized to collect blood at 28 h (following two doses of herbal components at −0.5 and +24 h) after endotoxemia, and at 52 h (following two doses of herbal components at +24 and +48 h) after CLP.
Measurement of cardiac output. A radiolabeled microsphere technique was used to measure cardiac output at 20 h after CLP or sham operation as previously described (Yang et al. 2002b). Briefly, a bolus of ^141Ce-labeled microspheres (4.0 μCi, DuPont NEN, Boston, Mass.) was injected into the left ventricle, where it mixed uniformly with the oxygenated blood at the root of the aorta, and subsequently distributed via aortic blood flow to the capillary beds within each organ. The reference blood sample was withdrawn from the femoral arterial catheter (at a rate of 0.7 ml/min) with a pump (Harvard Apparatus, Holliston, Mass.), after which isotonic sodium chloride solution was infused manually to replace the volume of blood lost. At 20 h post CLP, animals were sacrificed to harvest various organs for measurement of radioactivity with an automatic gamma counter (1470 Wizard; Wallac, Gaithersburg, Md.). Cardiac output and organ blood flow were calculated according to the following equations: cardiac output=[(RBF×CT)/Cr]× 1/100 and organ blood flow=[(RBF×Ct)/Cr]× 1/100, where RBF is the reference blood sample withdrawal rate (0.7 ml/min), CT is counts per minute of total injected dose, Ct is counts per minute per gram of tissue, and Cr is counts per minute in the reference blood sample. Stroke volume (SV) and total peripheral resistance (TPR) were calculated as previously described (Yang et al. 2002b).

HMGB1 [3] = test: HMGB1-induced release of TNF and nitric oxide in murine macrophage cultures; format: cell-based; details: concentrations up to 100 μM, preliminary data
lethal sepsis = test: Lethal sepsis induced by cecal ligation and puncture (CLP) in Balb/C mice; format: in vivo
Method: as §4
(§5) TNF ELISA. The levels of TNF in the culture medium or serum were determined using commercial enzyme linked immunosorbent assay (ELISA) kits (Catalog no. MTA00, R & D Systems, Minneapolis, Minn.) with reference to standard curves of purified recombinant TNF at various dilutions as previously described (Chen et al. 2004; Rendon-Mitchell et al. 2003; Wang et al. 2006).
Nitric oxide assay. The levels of nitric oxide in the culture medium were determined indirectly by measuring NO^2− production with a colorimetric assay based on the Griess reaction (Rendon-Mitchell et al. 2003). NO2-concentrations were determined with reference to a standard curve generated with sodium nitrite at various dilutions.
as §3
Tissue histology. At 48 hours after CLP, mice were euthanized in CO2 Chamber, and immediately perfused (transcardially) with phosphate buffer saline and 4% paraformaldehyde. Various tissues were harvested, sectioned, and stained with hematoxylin and eosin for morphology evaluation.

TNF = test: LPS-induced TNF release in human peripheral blood mononuclear cells (ELISA); format: cell-based; details: 100 μM, FIG. 2B lower panel
Method: as §1, §2, §5

Cc1c(S(=O)(=O)[O-])oc2c1C(=O)C(=O)c1c-2ccc2c1CCCC2(C)C.[Na+] [TSNIIA-SS, tanshinone IIA sodium sulfonate]
effect on LPS-induced HMGB1 release (HMGB1 [1]): effectively inhibited | heart rate ([2]; 15 mg/kg, CLP group 378.3±25.1, n=6, p<0.05): 334.1±25.8 beats/minutes | total peripheral vascular resistance ([2]; FIG. 8A): dose-dependently reduced | cardiac stroke volume ([2]; FIG. 8B): significantly increased | cardiac output ([2]; FIG. 8C): significantly increased | mean arterial blood pressure ([2]; CLP group 106.1±4.7, n=6, p>0.05): 96.4±8.7 mm Hg | attenuation of HMGB1-induced release of TNF (HMGB1 [3]): 50-60% | attenuation of HMGB1-induced release of nitric oxide (HMGB1 [3]): 90-95% | signs of hepatic necrosis (lethal sepsis; 15 mg/kg, histology 48 hours post onset of sepsis, control 2 out of 12 survivors): not observed in any of the 15 survivors | circulating nitric oxide levels (lethal sepsis; 52 h after the onset of sepsis, vehicle 18.0±4.5 μmol/L, n=3, P>0.05): 15.5 ± 3.3 µmol/L | circulating TNF levels (lethal sepsis; 52 h after the onset of sepsis, vehicle 65+15 ng/L, P>0.05): 85+23 ng/L | animal survival rate, lethal sepsis (lethal sepsis; repeated administration at 24, 48, 72, 96 hours post sepsis, control 33%, P<0.05): 73% | circulating HMGB1 levels in septic mice (lethal sepsis; repeated administration, 52 h post CLP, FIG. 7A, P<0.05): dose-dependently, and significantly attenuated | survival rate, lethal sepsis (lethal sepsis; single i.p. dose 15 mg/kg 24 h after onset of sepsis, saline control 33%, P>0.05): 50% | effect on LPS-induced release of TNF (TNF): did not completely block
